Measurements as given in patent US5677285A, “Derivatives of neuraminic acid” (Fidia S.P.A., priority 1992, dated 1997).

Test system: C1300 mouse neuroblastoma cells, Neuro-2a clone
Experiment: Neuritogenic activity (cells with neurites, optical microscopy)
Assay type: cell-based
Procedure: C1300 mouse neuroblastoma cells, Neuro-2a clone, (American Cell Type Culture Collection, Bethesda, Md.) were grown at a density of 10,000 cells/well in a culture medium containing Dulbecco's modified Eagle medium (DMEM, Flow), 10% fetal calf serum (FCS, batch IP 02, Seromed), penicillin (100 units per ml, Irvine), and L-glutamine (2 mM, Sigma). Cells were incubated at 37° C. for 24 hours, and medium was removed and substituted with 350 μl of fresh medium plus compounds to be tested.
Tested Compounds and Their Solubilization
Compounds ND35 and ND37 were solubilized at a concentration of 1×10^-2 M in dimethylsulfoxide (1% DMSO). For the different compounds, progressive dilutions in culture medium were performed (concentrations from 1×10^-5 to 1×10^-4 M).
Neuritogenic activity (cell number with neurites, optical microscopy)
Culture plates were incubated with compounds to be tested and analyzed using a phase contrast microscope (250×). Nine fields with prefixed coordinates were chosen and photographed. Then the total number of cells and those with neurites (length at least double the cell diameter) were counted in blind in each photograph. The percentage of cells with neurites was determined after counting of at least 100 cells (Facci L. et al.: Promotion of neuritogenesis in mouse neuroblastoma cells by exogenous ganglioside GM1. J. Neurochem. Raven Press, New York, 299-305,1984).

Compound: CCCCCCCCCCCCCCCC(=O)NC1C(O)CC(OCC)(C(=O)NCCCN(C)C)OC1C(O)C(O)CO (centres unmarked) [ND35, 2-ethylglycoside of N-palmitoyl-neuraminic acid dimethylaminopropylamide]
- Cells with neurities (%) (1 × 10^-4 M): 39 ± 7%
- Cells with neurities (%) (1 × 10^-5 M): 7 ± 2%
- neuritogenesis in vitro (1×10^-5 to 1×10^-4 M): induce neuritogenesis
- Cells with neurities (%) (2.5 × 10^-5 M): 7 ± 3%
- Cells with neurities (%) (5 × 10^-5 M): 28 ± 7%
